{
  "source": "patent US20090162413A1",
  "about": "(priority 1998, published 2009)",
  "key": {"[1]": {"test_system": "human coronary artery smooth muscle cells (hCaSMC)", "test": "3H-thymidine uptake proliferation assay, hCaSMC", "format": "cell-based", "details": "Homo sapiens; read-out: hCaSMC IC50 Mean ± SEM", "experimental": "Experiments were performed to investigate interactions between zotarolimus (ABT-578) and paclitaxel when administered in combination. The effects of paclitaxel and zotarolimus on the anti-proliferative activity of human coronary artery smooth muscle ([…]) and endothelial […] determined using an in vitro proliferation assay. The proliferation and migration of vascular smooth muscle cells into the vascular neointima is a characteristic pathologic response seen in restenotic lesions (Lafont and Libby, 1998). As a result, in vitro assays which specifically measure the anti-proliferative activity of candidate anti-restenotic compounds on human coronary artery smooth muscle and endothelial cells predict potential anti-restenotic activity in vivo. Compounds or combinations of compounds which attenuate growth factor-mediated human coronary artery smooth muscle cell ([…]) proliferation, as measured by the tritium incorporation assay in vitro, are candidate anti-restenotic agents. The tritium incorporation assay is an accurate and sensitive method to determine cell number and proliferation. […] The attenuation of zotarolimus's anti-proliferative activity by tacrolimus is a clear example of this effect (FIG. 10A). To determine the potential anti-restenotic activity of combinations of zotarolimus and paclitaxel, the proliferation of […] was measured in the presence of each compound and in combination. To determine if paclitaxel attenuated or augmented the activity of zotarolimus the effect of paclitaxel and zotarolimus alone and in combination on growth-factor induced proliferation was determined. Data were analyzed for additivity using an isobologram approach and a combination index analysis. An isobologram is a Cartesian plot of pairs of doses that, in combination, yield a specified level of effect. It is a convenient way of graphically displaying results of drug-combination and similar studies, because paired values of experimental points that fall below or above the line connecting the axial points indicate synergistic and non-synergistic interactions, respectively. Cell proliferation was monitored by following incorporation of ^3H-thymidine into newly synthesized DNA of cells stimulated by serum and growth factors. Exponentially growing […] were seeded into 96-well flat bottom tissue culture plates at 5,000 cells/well (10,000 cells/well for […]). The cells were allowed to attach overnight. The growth medium was removed the following day, and cells were washed twice with un-supplemented (basal) medium to remove traces of serum and growth factors. […] PerkinElmer; Wellesley; MA) was added to each filter well and the plates were counted using a TopCount microplate scintillation counter (PerkinElmer). […]"}, "[2]": {"test_system": "human coronary artery endothelial cells (hCaEC)", "test": "3H-thymidine uptake proliferation assay, hCaEC", "format": "cell-based", "details": "Homo sapiens, Endothelial cell; read-out: hCaEC IC50 Mean ± SEM", "experimental": "Experiments were performed to investigate interactions between zotarolimus (ABT-578) and paclitaxel when administered in combination. The effects of paclitaxel and zotarolimus on the anti-proliferative activity of human coronary artery smooth muscle ([…]) and endothelial […] determined using an in vitro proliferation assay. The proliferation and migration of vascular smooth muscle cells into the vascular neointima is a characteristic pathologic response seen in restenotic lesions (Lafont and Libby, 1998). As a result, in vitro assays which specifically measure the anti-proliferative activity of candidate anti-restenotic compounds on human coronary artery smooth muscle and endothelial cells predict potential anti-restenotic activity in vivo. To determine if paclitaxel attenuated or augmented the activity of zotarolimus the effect of paclitaxel and zotarolimus alone and in combination on growth-factor induced proliferation was determined. Data were analyzed for additivity using an isobologram approach and a combination index analysis. An isobologram is a Cartesian plot of pairs of doses that, in combination, yield a specified level of effect. It is a convenient way of graphically displaying results of drug-combination and similar studies, because paired values of experimental points that fall below or above the line connecting the axial points indicate synergistic and non-synergistic interactions, respectively. Cell proliferation was monitored by following incorporation of ^3H-thymidine into newly synthesized DNA of cells stimulated by serum and growth factors. Exponentially growing […] were seeded into 96-well flat bottom tissue culture plates at 5,000 cells/well (10,000 cells/well for […]). The cells were allowed to attach overnight. […] PerkinElmer; Wellesley; MA) was added to each filter well and the plates were counted using a TopCount microplate scintillation counter (PerkinElmer). […] The concentration eliciting a specific anti-proliferative effect was determined using a four-parameter equation (equation 1): […]"}},
  "data": [
    {"smiles": "CO[C@H]1C[C@@H]2CC[C@@H](C)[C@@](O)(O2)C(=O)C(=O)N2CCCC[C@H]2C(=O)O[C@H]([C@H](C)C[C@@H]2CC[C@H](n3cnnn3)[C@H](OC)C2)CC(=O)[C@H](C)/C=C(\\C)[C@@H](O)[C@@H](OC)C(=O)[C@H](C)C[C@H](C)/C=C/C=C/C=C/1C", "note": "[zotarolimus]", "values": [
      {"measurement": "IC50", "setting": "[1]", "result": "4.2 ± 1.7", "unit": "nM"},
      {"measurement": "IC50", "setting": "[2]", "result": "3.6 ± 0.2", "unit": "nM"}
    ]}
  ]
}
